# Laboratory results reported in patent publication US4338122A, “Biocidal 2-aryl-1,3-cyclopentanedione compounds and alkali metal and ammonium salts thereof” (Union Carbide Corporation, priority 1980, dated 1982).
# Assays:
# [1] = tested on: egg of the two-spotted mite (Tetranychus urticae (Koch)); experiment: Mite Ovicide Test (egg); assay type: in vivo; design: key to Miticidal, Egg (control rating): A: Excellent Control; B: Partial Control; No Control; conditions: Table I; unhatched/hatched eggs four days after spraying
# Description: (§1) Suspensions of the test compounds were prepared by dissolving one gram of compound in 50 milliliters of acetone in which had been dissolved 0.1 gram (10 percent of the weight of compound) of an alkylphenoxyethoxyethanol surfactant, as an emulsifying or dispersing agent. The resulting solution was mixed into 160 milliliters of water to give roughly 200 milliliters of a suspension containing the compound in finely divided form. The thus prepared stock suspension contained 0.5 percent by weight of compound. The test concentrations employed in the tests described herein below were obtained by diluting the stock suspension with water. The test procedures were as follows:
# The test organism was the egg of the two-spotted mite (Tetranychus urticae (Koch)), as obtained from adults reared on Tendergreen bean plants under controlled conditions of 80°±5° F. and 50±5 percent relative humidity. Heavily infested leaves from a stock culture were placed on the primary leaves of two bean plants six to eight inches in height growing in a two-and-a-half inch clay pot. Females were allowed to oviposit for a period of 48 hours and then the leaves of the infested plants were dipped in a solution containing 800 parts of tetraethyl pyrophosphate per million parts of water in order to destroy the reproductory forms and thus prevent further egg laying. […] The plants were allowed to dry thoroughly. The test compounds were formulated by diluting the stock suspension with water to give a suspension containing varying amounts of test compound per million parts of final formulation. The potted plants (one pot per compound) were placed on a revolving turntable and sprayed with 100-110 milliliters of test compound formulation by use of a DeVilbis spray gun set at 40 spig. air pressure. This application which lasted 30 seconds, was sufficient to wet the plants to run-off. As a control, 100-110 milliliters of a water solution containing acetone and emulsifier in the same concentrations as the test compound formulation, but containing no test compound, were also sprayed on plants infested with eggs. The sprayed plants were held at 80°±5° F. and 50±5 percent relative humidity for four days, after which a microscopic examination was made of unhatched (dead) and hatched (living) eggs.
# (§2) In these tests the pesticidal activity of the compounds against mites and mite eggs were rated as follows:
# (§3) Tests were conducted in accordance with the procedures given at pages 32 to 37 supra. The results are expressed in the same manner as used in Table I, except with respect to miticidal activity. For mite adult and mite egg comparison purposes, results are given in parts per million (ppm) required for a 50 percent kill of mites or eggs, respectively.
# [2] = tested on: two-spotted mite (Tetranychus urticae (Koch)), adults and nymphal stages; experiment: Mite Foliage Spray Test (adult miticidal); assay type: in vivo; design: key to Miticidal, Adult (control rating): A: Excellent Control; B: Partial Control; No Control; conditions: Table I; mortality count four days after spraying
# Description: as §1
# Adults and nymphal stages of the two-spotted mite (Tetranychus urticae (Koch)), reared on Tendergreen bean plants at 80°±5° F. and 50±5 percent relative humidity, were the test organisms. Infested leaves from a stock culture were placed on the primary leaves of two bean plants six to eight inches in height, growing in a two-and-a-half inch clay pot. 150-200 Mites, a sufficient number for testing, transferred from the excised leaves to the fresh plants in a period of twenty-four hours. Following the twenty-four hour transfer period, the excised leaves were removed from the infested plants. The test compounds were formulated by diluting the stock suspension with water to provide suspensions containing the desired amount of test compound per million parts of final formulation. The potted plants (one pot per compound) were placed on a revolving turntable and sprayed with 100-110 milliliters of test compound formulation by use of a DeVilbis spray gun set at 40 psi. air pressure. This application, which lasted 30 seconds, was sufficient to wet the plants to run-off. As a control, 100-110 milliliters of a water solution containing acetone and emulsifier in the same concentrations as the test compound formulation, but containing no test compound, were also sprayed on infested plants. The sprayed plants were held at 80°±5° F. and 50±5 percent relative humidity for four days, after which, a mortality count of motile forms was made on the leaves of the test plants. Any individual which was capable of locomotion upon prodding was considered living.
# as §2, §3
compound,measurement,setting,value
"O=C1C(c2ccc(Cl)cc2Cl)C(=O)C2CC=CCC12 (centres unmarked) [Cl Cl H (CH2 CHCHCH2), 8-(2',4'-dichlorophenyl)bicyclo[4.3.0]non-3-en-7,9-dione]","Miticidal, Egg (control rating)",[1],A
same,"Miticidal, Adult (control rating)",[2],A
